Experimental data as given in patent publication US20040097432A1, “Method of reducing cholesterol” (ACCESS BUSINESS GROUP INTERNATIONAL LLC., priority 2002, published 2004).

Test system: HepG2 hepatocytes
Assay: Inhibition of cholesterol synthesis in HepG2 hepatocytes (secreted cholesterol and cholesteryl ester, AmplexRed)
Assay type: cell-based
Experimental: HepG2 hepatocytes were used as a model to study the inhibition of cholesterol synthesis according to the procedures described in Dashti, N., et al., J. Lipid Res. 28:423-436 (1987) and Mohammadi, A., et al., Arterioscler. Thromb. Vasc. Biol., […]:783-793 (1998). […] Amounts of secreted cholesterol and cholesteryl ester are measured from acetate fed hepatocyte culture media using a fluorescent indicator AmplexRed.
The same cholesterol inhibition model used in Example I was used to determine the cholesterol synthesis inhibition of theaflavins, including theaflavin and gallate esters of theaflavin.

O=c1c(O)cc([C@H]2Oc3cc(O)cc(O)c3C[C@H]2O)cc2c([C@H]3Oc4cc(O)cc(O)c4C[C@H]3O)cc(O)c(O)c12 [theaflavin, Theaflavin] was tested, and the inhibition at 50 µg/mL (Homo sapiens, 0.05 mg/ml theaflavin, acetate fed HepG2 culture media, FIG. 1, read-out: inhibitory effect (cholesterol synthesis/release)) was ~30% and the “dose specific response of hepatocytes compared to Lipotor” value (same weight basis (tablet weight, 6.7% actives), HepG2, FIG. 1) was “comparable or slightly better than Lipotor®”.

In the case of O=C(O[C@@H]1Cc2c(O)cc(O)cc2O[C@@H]1c1cc(=O)c(O)c2c(O)c(O)cc([C@H]3Oc4cc(O)cc(O)c4C[C@H]3O)c2c1)c1cc(O)c(O)c(O)c1 [theaflavin-3-gallate], the “cholesterol inhibition activity (contribution among materials tested)” value (HepG2, dose response FIG. 2, materials of Table I) is reported as “provided much of the cholesterol inhibition activity”.
